From US20180251431A1 (VERTEX PHARMACEUTICALS INCORPORATED, priority 2016, published 2018)

System: HEK293 cells
Assay: HEK293 VLCFA-LPC IC50 determination (13C-labeled C26:0 LPC by UHPLC/MS)
Assay type: cell-based, human
Settings: Homo sapiens, HEK293, HEK293 cells; average of one or more replicates; read-out: Average HEK293 IC50
Method in brief: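 Suspension HEK293 cells (final 0.5 million/mL after mixing with equal volume) incubated 48 hours with compound plus 13C-acetate (1.0 mg/mL in added media), shaking at 37° C. Lipids extracted with hexane/isopropanol or methanol, C13:0 LPC standard. UHPLC/MS of 13C-labeled C26:0 LPC (638.500/104.100 m/z); IC50 by four-parameter fit.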

`Cn1ccc(-n2ccc(NC(=O)Cc3ccccc3)n2)n1` [Compound 228, N-[1-(1-methylpyrazol-3-yl)pyrazol-3-yl]-2-phenyl-acetamide] and `Cn1ccc(-n2ccc(NC(=O)Cc3ccccc3F)n2)n1` [Compound 230, 2-(2-fluorophenyl)-N-[1-(1-methylpyrazol-3-yl)pyrazol-3-yl]acetamide] cannot be ordered by IC50: greater than 5000 nM for the first, greater than 5000 nM for the second.

Compared with `Cn1ccc(-n2ccc(NC(=O)C3(c4ccccc4F)CC3)n2)n1` [Compound 229, 1-(2-fluorophenyl)-N-[1-(1-methylpyrazol-3-yl)pyrazol-3-yl]cyclopropanecarboxamide], `Cn1ccc(-n2ccc(NC(=O)C3(c4ccccc4)CC3)n2)n1` [Compound 231, N-[1-(1-methylpyrazol-3-yl)pyrazol-3-yl]-1-phenyl-cyclopropanecarboxamide] is higher in IC50: 3500 nM for the first, greater than 5000 nM for the second.

Going from `O=C(Nc1ccn(-c2cnccn2)n1)C1(c2ccccc2)CC1` [Compound 233, 1-phenyl-N-(1-pyrazin-2-ylpyrazol-3-yl)cyclopropanecarboxamide] to `O=C(Nc1ccn(-c2cccnc2)n1)C1(c2ccccc2)CC1` [Compound 234, 1-phenyl-N-[1-(3-pyridyl)pyrazol-3-yl]cyclopropanecarboxamide], the IC50 falls from 1500 nM to 29 nM (52-fold). The second is the more potent here.

`O=C(Cc1ccccc1F)Nc1ccn(-c2cccnc2)n1` [Compound 235, 2-(2-fluorophenyl)-N-[1-(3-pyridyl)pyrazol-3-yl]acetamide] and `O=C(Nc1ccn(-c2cccnn2)n1)C1(c2ccccc2F)CC1` [Compound 239, 1-(2-fluorophenyl)-N-(1-pyridazin-3-ylpyrazol-3-yl)cyclopropanecarboxamide] are within 1.5-fold of each other in IC50: 320 nM for the first, 300 nM for the second.

Compared with `O=C(Cc1cncnc1)Nc1ccn(-c2ccnc(F)c2)n1` [Compound 236, N-[1-(2-fluoro-4-pyridyl)pyrazol-3-yl]-2-pyrimidin-5-yl-acetamide], `O=C(Nc1ccn(-c2ccnc(F)c2)n1)C1(c2ccccc2)CC1` [Compound 237, N-[1-(2-fluoro-4-pyridyl)pyrazol-3-yl]-1-phenyl-cyclopropanecarboxamide] is lower in IC50: greater than 5000 nM for the first, 22 nM for the second. The second is the more potent here.

Compared with `O=C(Nc1ccn(-c2ccnc(F)c2)n1)C1(c2ccc(I)cc2)CC1` [Compound 238, N-[1-(2-fluoro-4-pyridyl)pyrazol-3-yl]-1-(4-iodophenyl)cyclopropanecarboxamide], `CCOc1ccc(C2(C(=O)Nc3ccn(-c4ccnc(F)c4)n3)CC2)cc1` [Compound 246, 1-(4-ethoxyphenyl)-N-[1-(2-fluoro-4-pyridyl)pyrazol-3-yl]cyclopropanecarboxamide] is 23-fold higher in IC50: 120 nM for the first, 2800 nM for the second. The first is the more potent here.

Compared with `O=C(Nc1ccn(-c2ncccn2)n1)C1(c2ccccc2F)CC1` [Compound 240, 1-(2-fluorophenyl)-N-(1-pyrimidin-2-ylpyrazol-3-yl)cyclopropanecarboxamide], `Cc1ncc(-n2ccc(NC(=O)C3(c4ccccc4F)CC3)n2)cn1` [Compound 241, 1-(2-fluorophenyl)-N-[1-(2-methylpyrimidin-5-yl)pyrazol-3-yl]cyclopropanecarboxamide] is higher in IC50: 4400 nM for the first, greater than 5000 nM for the second.

First: N#Cc1ccccc1C1(C(=O)Nc2ccn(-c3ccccc3)n2)CC1 [Compound 242, 1-(2-cyanophenyl)-N-(1-phenylpyrazol-3-yl)cyclopropanecarboxamide]
Second: N#Cc1cccc(C2(C(=O)Nc3ccn(-c4ccccc4)n3)CC2)c1 [Compound 244, 1-(3-cyanophenyl)-N-(1-phenylpyrazol-3-yl)cyclopropanecarboxamide]
The IC50 of the first is higher: greater than 2000 nM for the first, 280 nM for the second. The second is the more potent here.

`N#Cc1cccc(C2(C(=O)Nc3ccn(-c4ccnc(F)c4)n3)CC2)c1` [Compound 243, 1-(3-cyanophenyl)-N-[1-(2-fluoro-4-pyridyl)pyrazol-3-yl]cyclopropanecarboxamide] and `Cc1cccc(C2(C(=O)Nc3ccn(-c4ccnc(F)c4)n3)CC2)c1` [Compound 245, N-[1-(2-fluoro-4-pyridyl)pyrazol-3-yl]-1-(m-tolyl)cyclopropanecarboxamide] are within 1.5-fold of each other in IC50: 310 nM for the first, 260 nM for the second.
